# Tests used:
# v-Src versus c-Src = conditions: cited from earlier work
# E255K BCR-ABL = assay: BCR-ABL protein degradation, anti-ABL western blot in Ba/F3 cells; conditions: 24 hours
# [1] = tested on: T315I BCR-ABL-expressing Ba/F3 cells; assay: CRKL phosphorylation, western blot and densitometry; assay type: cell-based, murine; conditions: 24 hours
# T315I BCR-ABL = assay: BCR-ABL protein degradation, anti-ABL western blot in Ba/F3 cells; conditions: 24 hours
# Ba/F3 P210 E255K = assay: Growth inhibition, viable cells by trypan blue dye exclusion; assay type: cell-based, murine; conditions: Mus musculus, BaF3, concentration reducing number of viable cells by 50%, read-out: MEAN IC50 ± S.D.
# [2] = tested on: wild-type BCR-ABL-expressing Ba/F3 cells; assay: CRKL phosphorylation, western blot and densitometry; assay type: cell-based, murine; conditions: 24 hours
# Ba/F3 P210 T315I = assay: Growth inhibition, viable cells by trypan blue dye exclusion; assay type: cell-based, murine; conditions: Mus musculus, BaF3, concentration reducing number of viable cells by 50%, read-out: MEAN IC50 ± S.D.
# Ba/F3 P210 WT = assay: as above; assay type: cell-based, murine; conditions: Mus musculus, BaF3, concentration reducing number of viable cells by 50%, read-out: MEAN IC50 ± S.D.
# [3] = tested on: E255K BCR-ABL-expressing Ba/F3 cells; assay: CRKL phosphorylation, western blot and densitometry; assay type: cell-based, murine; conditions: 24 hours
# wild-type BCR-ABL = assay: BCR-ABL protein degradation, anti-ABL western blot in Ba/F3 cells; conditions: 24 hours
# [4] = tested on: Ba/F3 + IL-3 (BCR-ABL-negative parental cells); assay: Growth inhibition, viable cells by trypan blue dye exclusion; assay type: cell-based, murine; conditions: Mus musculus, BaF3, concentration reducing number of viable cells by 50%, read-out: MEAN IC50 ± S.D.
IC50 (Ba/F3 P210 E255K),IC50 (Ba/F3 P210 T315I),IC50 (Ba/F3 P210 WT),SMILES,fold resistance of v-Src versus c-Src to kinase inhibition (v-Src versus c-Src),concentration at which BCR-ABL protein levels decrease (E255K BCR-ABL),concentration at which virtually no BCR-ABL protein was detectable (E255K BCR-ABL),concentration at which CRKL phosphorylation was significantly inhibited [1],concentration at which BCR-ABL protein levels decrease (T315I BCR-ABL),concentration at which virtually no BCR-ABL protein was detectable (T315I BCR-ABL),concentration at which significant changes in CRKL phosphorylation were observed [2],concentration at which CRKL phosphorylation was significantly inhibited [3],concentration at which BCR-ABL protein levels decrease (wild-type BCR-ABL),IC50 [4]
–,–,–,Cc1ccc(-c2nn(C(C)(C)C)c3ncnc(N)c23)cc1 [PP1],approximately 50 fold,–,–,–,–,–,–,–,–,–
1 ± 0.2 µM,2.3 ± 0.4 µM,5.2 ± 2.4 µM,"C=CCNC1=C2C[C@@H](C)C[C@H](OC)[C@H](O)[C@@H](C)/C=C(\C)[C@H](OC(N)=O)[C@@H](OC)/C=C\C=C(/C)C(=O)NC(=CC1=O)C2=O [17-AAG, 17-allylaminogeldanamycin]",–,0.5 µM,1.0 µM,0.5 µM,0.5 µM,1.0 µM,5.0 µM,0.5 µM,0.5 to 1.0 µM,12.4 ± 0.3 µM
2.6 ± 2.4 µM,1.8 ± 2.1 µM,4.9 ± 1.6 µM,"COC1=C2C[C@@H](C)C[C@H](OC)[C@H](O)[C@@H](C)/C=C(\C)[C@H](OC(N)=O)[C@@H](OC)/C=C\C=C(/C)C(=O)NC(=CC1=O)C2=O [GA, Geldanamycin]",–,0.5 µM,–,–,0.5 µM,–,–,–,1.0 µM,27.3 ± 14.1 µM
